Consider two molecules from patent US5871779A, “Treatment of arthropathies with vanadate compounds or analogues thereof” (Mount Sinai Hospital Corporation, priority 1996, dated 1999).

For one data set, the system named is tumor growth. Briefly: different concentrations of BMOV on tumor growth (Example 23). The class given is in vivo, mice. Also noted: Tumour weight / Tumour weight, Means: unit not given here. The settings on record: for Tumour weight: individual mice. Here is the method:
In this experiment we determined the optimum concentration for inhibition of tumor growth as follows.
Forty mice were subcutaneously injected with tumor cells (10×10^6/ml)on day 1. On day 5, the mice were divided into five groups as follows: Group 1; control, PBS injected; Group 2: 0.1% BMOV injected; Group 3: 0.25% BMOV injected; Group 4: 0.5% BMOV injected and; Group 5: 0.75% BMOV injected. All the mice were injected (I.P.) with 2 mg NAC before injection of BMOV. […] The effective concentrations of BMOV are from 0.1% to 0.75%.

The test system of the next data set is collagenase. Kind of data set: synovial collagenase expression in arthritic rats (Northern blot). The class given is in vivo, rat. The conditions noted are these: BMOV-treated (with NAC) vs control, Day 18. The method, then: Collagenase, stromelysin, and IL-1 expression were quantitated in each group of rats. Selected rats in each group were sacrificed on Day 18 post arthritis onset to measure collagenase, stromelysin, and IL-1 expression via the Northern Blot. Synovial biopsies were pooled and homogenized in the presence of RNASTAT-60 (Tel Test). Total RNA was isolated following the manufacturer's instructions, washed in 70% ethanol, and dissolved in 30 μl RNA loading buffer (Sigma) containing ethidium bromide. The RNA was electrophoresed on a 1% agarose formaldehyde gel and transferred to 0.45 μm nylon filter membrane (Magna NT, MSL). The blot was prehybridised in 50% formamide, 5×SSPE, 5×dendhardts, 1% SDS, 200 μg/ml ssDNA and 50 μg/ml tRNA. The rat collagenase cDNA (bp. 1-550 of locus RATCOL genbank accession M60616), rat stromelysin (ATCC, Rockville, Md.), or rat […] (genbank accession D00403) were labeled by random primed incorporation of ^32 P-dATP (Random Primed Labeling Kit, Boerhinger Manheim). After overnight hybridization at 42° C. overnight, the blot was washed in 1×SSPE at 37° C. and exposed to Kodak X-Ornat AP film for 24 hours at -70° C. with an intensifying screen. The blot was stripped with 50% formamide in 2×SSPE, checked for residual counts and reprobed. The resulting autoradiographs were digitized and analyzed with NIH image software and normalized for RNA loading.

A further data set deals with jun. Briefly: jun / c-jun mRNA expression in chondrocytes (Northern blot). The class given is cell-based, bovine. The settings on record: 100 μM. An excerpt: The cytokine interleukin 1 (IL 1) has been used to identify the intermediate second messengers which regulate the expression of fos and jun.
Although IL 1 stimulated superoxide production, it was not known whether IL 1 induced fos and jun expression was dependent on the production of superoxides. In order to elucidate this possibility, the effect of DPI on fos and jun mRNA levels induced by IL 1 was investigated. RNA from chondrocytes treated with IL 1 in the presence and absence of DPI were analyzed by Northern blot analysis using either fos or collagenase cDNA probes. […] Similar data has been obtained for IL 1 induced jun expression. Furthermore, inhibition of fos and jun expression by DPI was sufficient to suppress IL 1 induced and constitutive collagenase expression.
The effect of orthovanadate and N-acetylcysteine on fos, jun and collagenase expression were examined. Bovine articular chondrocytes were isolated and plated as previously described (Kandel R. A. et al. Biochim. Biophys. Acta. 1053, 130-134, 1990). In order to determine the effect of orthovanadate on IL 1 and PMA (phorbol ester) induced responses, chondrocytes were incubated with orthovanadate (100 μM) for 2 hours before stimulation with IL 1 (10 ng/ml) or PMA ([…]). Collagenase production was determined by incubating chondrocytes for 24 hours with IL 1 or PMA and the cell conditioned medium was assayed for collagenase activity using an ELISA procedure as described previously (Kandel et al. supra). PLA2 activity was measured by incorporating ^3 H-arachidonic acid (^3 H-AA) into the cells and then incubating the cells with medium containing 1 mg/ml BSA, either alone or in the presence of IL 1 or PMA, for 10 min. as previously described (Conquer, J. A. […], Biochim. Biophys. Acta. 1134, 1-6). The amount of ^3 H-AA liberated into the supernatant was determined. […] The supernatant was analyzed by RIA using an antibody specific for PGE2 (Dr. S. A. Jones, Mount Sinai Hospital, Toronto, Canada). […]

The next data set concerns MCF7 (ADR). Kind of data set: MTT cytotoxicity assay, MCF7 (ADR). The class given is cell-based, human. The conditions noted are these: MCF7 (ADR), 72 hours; read-out: IC50 Value. The method, then:
The relative cytotoxicity of various compounds on tumor cell lines was investigated as follows. Cytotoxicity was measured by the MTT microculture tetrazolium colorimetric assay for all cell lines. The relative cytotoxicity of Na3 VO4 and VOSO4 was investigated using the following tumor cell lines: P388(WT) murine leukemia, P388 (ADR) murine leukemia, Lewis murine lung, MCF7 (WT) human breast, […] human lung, K562 human erythroleukemia, A431 human epidermal, LS180 human colon and SK-OV-3 human ovarian. The relative cytotoxicity of doxorubicin, Na3 VO4 and VOSO4 was investigated using the following tumor cell lines: P388(WT) murine leukemia, P388 (ADR) murine leukemia, MCF7(WT) human breast and MCF7 (ADR) human breast. The relative cytotoxicity of BMOV, BEOV and naglivan was investigated using the following tumor cell lines: P388(WT) murine leukemia, P388 (ADR) murine leukemia, Lewis murine lung, H460 human lung, K562 human erythroleukemia, and SK-OV-3 human ovarian.
The cells were plated (number of cells/well was different from cell line to cell depending on the dividing rate) in a 96-well microculture plate 24 hours prior to the delivery of the vanadium compounds. Serial concentrations of solutions of the test compounds (0.05-100 μM) were delivered to the corresponding wells. A blank column (without cells) and a control column (with cells without vanadium) were left. The cells were incubated for 72 hours continuously. An MTT solution was added to each well after this incubation period and the cells were incubated for 4 more hours for the completion of the dyeing process. The medium was removed find DMSO was added to each well. The absorbance of each well was read with a Titertek Multiskan (310C) spectrophotometer at 570 nm. The percentage of the absorbance of each vanadium concentration relative to the control calculated and the value of the 50% growth inhibition concentration (IC50) was obtained from the % control versus concentration plot. Each assay was repeated three times and the reported IC50 values were the mean of these three runs.
Background: Tetrazolium assays rely on reduction of a dye to a coloured formazan, in cell work by metabolically active cells.

SMILES strings stand for the structures. Values joined by “and” are separate entries in the source; they are usually repeats but may differ in a detail not shown here. Equal values may be shown once.

As to `Cc1occc(=O)c1[O-].Cc1occc(=O)c1[O-].[O]=[V+2]` [BMOV, bis(methylmaltolato) oxovanadium (IV)], the Tumour weight is 0.44 and 0.40 and 0.48 and 0.62 and 0.54 and 0.84 and 0.18 and 0.87 in the data set with tumor growth (0.1% BMOV + 2 mg NAC i.p.); 0.14 and 0.23 and 0.73 and 0.04 and 0.21 and 0 in the data set with tumor growth (0.25% BMOV + 2 mg NAC i.p.); 0.40 and 0.20 and 0.07 and 0.17 and 0.06 and 0 in the data set with tumor growth (0.5% BMOV + 2 mg NAC i.p.); 0.07 and 0.16 and 0.08 and 0.21 and 0.13 and 0 in the data set with tumor growth (0.75% BMOV + 2 mg NAC i.p.). The “Tumour weight, Means” value was 0.55 in the data set with tumor growth (0.1% BMOV + NAC), 0.18 in the data set on tumor growth (0.25% BMOV + NAC), 0.22 with tumor growth (0.5% BMOV + NAC) and 0.09 with tumor growth (0.75% BMOV + NAC). For the same molecule, the death of animal result with tumor growth (0.75% BMOV + NAC, mouse 8) is “died”. The “percent inhibition of collagenase gene expression” value with collagenase was found to be 78%.
As usually defined, the IC50 is the midpoint of a concentration-inhibition curve. Turning to `[Na+].[Na+].[Na+].[O]=[V]([O-])([O-])[O-]` [orthovanadate, sodium orthovanadate], the “inhibition of IL 1, PMA and AA induced c-jun expression” value in the data set on jun is “completely inhibited”. In addition, the IC50 in the data set with MCF7 (ADR) was found to be 30.7 µM.
